The source of these data is the RepoRT retention time repository.

Each structure is given as a SMILES string.

The nature of this series: HILIC, HILICON iHILIC-(P) Classic, HILIC, PEEK, 100 × 2.1 mm, 5 µm, 40 °C, 0.12 mL/min, estimated dead time 1.8 min; A: water + 20 mM ammonium carbonate + 5 µM medronic acid; B: 10% water + 90% acetonitrile + 2 mM ammonium carbonate + 0.5 µM medronic acid; gradient (min/%B) 0/95 18/55 19/20 22/20 22.5/95 24/95 26/95. The note with it: stereoisomer not certain.

Consider `O=C(O)CCC(=O)C(=O)O` [2-Oxoglutaric acid], for which the LC retention time was 12.7 min.
Turning to `Nc1ncnc2c1ncn2C1OC(COP(=O)(O)OP(=O)(O)O)C(O)C1O` (stereo not drawn) [ADP], the LC retention time is 12.2 min.
Turning to `Nc1ncnc2c1ncn2C1OC(COP(=O)(O)O)C(O)C1O` (stereo not drawn) [AMP], the LC retention time was 9.81 min.
For the compound `Nc1ncnc2c1ncn2C1OC(COP(=O)(O)OP(=O)(O)OP(=O)(O)O)C(O)C1O` (stereo not drawn) [ATP], the LC retention time is 13.7 min.
As for `CC(=O)SCCNC(=O)CCNC(=O)C(O)C(C)(C)COP(=O)(O)OP(=O)(O)OCC1OC(n2cnc3c(N)ncnc32)C(O)C1OP(=O)(O)O` (stereo not drawn) [Acetyl-CoA], the figure is 10 min; as for `Nc1ncnc2c1ncn2C1OC(CO)C(O)C1O` (stereo not drawn) [Adenosine], 4.33 min.
Next, `NC(N)=NCCCC(N)C(=O)O` (stereo not drawn) [Arginine]: 18.9 min; `NC(=O)CC(N)C(=O)O` (stereo not drawn) [Asparagine]: 9.93 min; `O=C(O)CC(O)(CC(=O)O)C(=O)O` [Citric acid]: 15 min.
For `CC(C)(COP(=O)(O)OP(=O)(O)OCC1OC(n2cnc3c(N)ncnc32)C(O)C1OP(=O)(O)O)C(O)C(=O)NCCC(=O)NCCS` (stereo not drawn) [CoenzymeA], the LC retention time is 11.4 min.
In the case of `O=C(CO)C(O)C(O)C(O)COP(=O)(O)O` (stereo not drawn) [Fructose 6-phosphate], the LC retention time was 12.5 min.
Consider `O=P(O)(O)OCC1OC(O)(COP(=O)(O)O)C(O)C1O` (stereo not drawn) [Fructose-1,6-bisphosphate], for which the LC retention time is 15.9 min.
Regarding `O=C(O)C=CC(=O)O` [Fumaric Acid], the LC retention time was 12 min.
With `NC(CCC(=O)NC(CS)C(=O)NCC(=O)O)C(=O)O` (stereo not drawn) [GSH], the LC retention time is 9.93 min.
Consider `NC(CCC(=O)NC(CSSCC(NC(=O)CCC(N)C(=O)O)C(=O)NCC(=O)O)C(=O)NCC(=O)O)C(=O)O` (stereo not drawn) [GSSG], for which the LC retention time was 14.8 min.
Take `O=P(O)(O)OC1OC(CO)C(O)C(O)C1O` (stereo not drawn) [Glucose-1-phosphate]: the LC retention time was 12.5 min.
As to `O=P(O)(O)OCC1OC(O)C(O)C(O)C1O` (stereo not drawn) [Glucose-6-phosphate], the LC retention time is 13.5 min.
Turning to `NC(CCC(=O)O)C(=O)O` (stereo not drawn) [Glutamic acid], the LC retention time was 9.95 min.
On to `NC(=O)CCC(N)C(=O)O` (stereo not drawn) [Glutamine], for which the LC retention time is 9.95 min.
With `O=P(O)(O)OCC(O)CO` (stereo not drawn) [Glycerol-3-phosphate], the LC retention time is 11 min.
As for `O=C(O)CC(C(=O)O)C(O)C(=O)O` (stereo not drawn) [Isocitric acid], the figure is 15.7 min; as for `CC(O)C(=O)O` (stereo not drawn) [Lactic Acid], 3.31 min; as for `NCCCCC(N)C(=O)O` (stereo not drawn) [Lysine], 18.5 min.
Next, `O=C(O)CC(O)C(=O)O` (stereo not drawn) [Malic Acid]: 11.9 min; `NC(=O)C1=CN(C2OC(COP(=O)(O)OP(=O)(O)OCC3OC(n4cnc5c(N)ncnc54)C(O)C3O)C(O)C2O)C=CC1` (stereo not drawn) [NADH]: 9.3 min.
Turning to `NC(=O)C1=CN(C2OC(COP(=O)(O)OP(=O)(O)OCC3OC(n4cnc5c(N)ncnc54)C(OP(=O)(O)O)C3O)C(O)C2O)C=CC1` (stereo not drawn) [NADPH], the LC retention time was 15.5 min.
With `NC(=O)c1ccc[n+](C2OC(COP(=O)(O)OP(=O)(O)OCC3OC(n4cnc5c(N)ncnc54)C(OP(=O)(O)O)C3O)C(O)C2O)c1` (stereo not drawn) [NADP], the LC retention time is 14.3 min.
Next, `NC(=O)c1ccc[n+](C2OC(COP(=O)(O)OP(=O)(O)OCC3OC(n4cnc5c(N)ncnc54)C(O)C3O)C(O)C2O)c1` (stereo not drawn) [NAD]: 10.4 min; `C=C(OP(=O)(O)O)C(=O)O` [PEP]: 14.5 min.
Take `O=P(O)(O)OCC1OC(O)C(O)C1O` (stereo not drawn) [Pentose-phosphate]: the LC retention time is 11.3 min.
For `O=C(O)CCC(=O)O` [Succinic Acid], the LC retention time is 10.9 min.
Turning to `O=C(CO)COP(=O)(O)O` [Triose phosphate], the LC retention time was 11.3 min.
For the compound `CC(=O)NC1C(OP(=O)(O)OP(=O)(O)OCC2OC(n3ccc(=O)[nH]c3=O)C(O)C2O)OC(CO)C(O)C1O` (stereo not drawn) [UDP-GlcNAc], the LC retention time is 11.7 min.
